The record followed here is ChEMBL document CHEMBL1201862, “PubChem BioAssay data set” (2004).

Each structure is given as a SMILES string.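 Dose response: 5 concentrations. Exposure: 48 h. Format: 96-well plates. Endpoint: linear interpolation; highest concentration if not reached. Abbreviation: GI50, concentration required for 50% inhibition of growth.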 Activity calls are given as the source filed them. No stated cut-off is given here; in the data, active = GI50 up to about 1.1 µM and inactive = higher. Non-standard residues stand in square brackets, D forms with d. Residues, ends and D or L forms follow the SMILES beside them. *: point of attachment. Ac5c = NC1(C(=O)O)CCCC1; Cbz = O=C(OCc1ccccc1)*; Boc = CC(C)(C)OC(=O)*; tBu = CC(C)(C)*

Test systems include TK-10; UO-31; A498; OVCAR-5; HOP-92; SK-MEL-28; U-251; CAKI-1; OVCAR-8; 786-0; SN12C; HCC 2998; SNB-75; SW-620; SF-268; NCI-H226; Malme-3M; SF-295; HL-60; NCI-H460.
What all share (assay): NCI-60 cell line screen, 48 h

Consider `COC1=C(N)C(=O)c2nc(C)ccc2C1=O`, for which the GI50 in the assay with TK-10 is 8.2 µM (inactive); in the assay on UO-31, 2.17 µM (inactive); with A498, 1.89 µM (inactive); in the assay on OVCAR-5, 1.98 µM (inactive); with HOP-92, 9.95 µM (inactive); in the assay with SK-MEL-28, 1.82 µM (inactive). Further, the GI50 in the assay on U-251 is 2.2 µM (inactive); in the assay on CAKI-1 it was 8.3 µM (inactive); in the assay on OVCAR-8, 3.93 µM (inactive); in the assay with 786-0, 1.98 µM (inactive); with SN12C, 1.82 µM (inactive); in the assay on HCC 2998 it was 4.57 µM (inactive). The GI50 in the assay with SNB-75 is 2.03 µM (inactive); in the assay with SW-620, 1.87 µM (inactive); in the assay on SF-268 it was 2.11 µM (inactive); in the assay with NCI-H226, 1.04 µM (active); in the assay on Malme-3M it was 1.77 µM (inactive); in the assay on SF-295 it was 1.79 µM (inactive). The figures for the GI50 in the assay on HL-60 and in the assay on NCI-H460 were 2.94 µM (inactive) and 2.08 µM (inactive), respectively.
On to `NC12Oc3cc(O)cc(O)c3C1(c1ccc(Cl)cc1)c1c(O)cc(O)cc1O2` (stereo not given), for which the GI50 with TK-10 is 66.8 µM (inactive); in the assay on UO-31 it was 92.5 µM (inactive); in the assay on A498, > 100 µM (inactive); in the assay with OVCAR-5, > 100 µM (inactive); with HOP-92, 25.9 µM (inactive); with SK-MEL-28, 61.2 µM (inactive). In addition, the GI50 in the assay with U-251 is 65.8 µM (inactive); with CAKI-1 it was > 100 µM (inactive); in the assay with OVCAR-8, > 100 µM (inactive); in the assay with 786-0, 61.8 µM (inactive); in the assay on SN12C it was 21.4 µM (inactive); in the assay on HCC 2998, > 100 µM (inactive). Further, the GI50 was 89.1 µM (inactive) in the assay on SNB-75; > 100 µM (inactive) in the assay on SW-620; 69 µM (inactive) with SF-268; > 100 µM (inactive) in the assay with NCI-H226; 40.6 µM (inactive) in the assay with Malme-3M; 96.8 µM (inactive) in the assay on SF-295. Besides, the GI50 is 27.4 µM (inactive) with HL-60 and 34.6 µM (inactive) with NCI-H460.
As for `Cc1ccc(CN2CCN(Cc3ccc(C)o3)C(C)C2)o1` (stereo not given), the GI50 with TK-10, in the assay on UO-31, in the assay on A498, with OVCAR-5, in the assay with HOP-92 and with SK-MEL-28 was > 100 µM (inactive) each time. Also, the GI50 with U-251, in the assay on CAKI-1, in the assay with OVCAR-8, in the assay on 786-0, with SN12C and with HCC 2998 was > 100 µM (inactive) each time. Further, the GI50 with SNB-75, in the assay on SW-620, in the assay on SF-268, in the assay on NCI-H226, in the assay on Malme-3M and in the assay on SF-295 was > 100 µM (inactive) in each case. The GI50 with HL-60 and with NCI-H460 was > 100 µM (inactive) in each case.
Regarding `O=c1[nH]c(=S)[nH]n1C(=S)n1[nH]c(=S)[nH]c1=O`, the GI50 with TK-10, in the assay with UO-31, with A498, with OVCAR-5, in the assay on HOP-92 and with SK-MEL-28 was > 100 µM (inactive) each time. The GI50 in the assay with U-251, in the assay on CAKI-1, in the assay with OVCAR-8, in the assay with 786-0, with SN12C and in the assay with HCC 2998 was > 100 µM (inactive) each time. The GI50 with SNB-75 was > 100 µM (inactive); in the assay on SW-620 it was > 100 µM (inactive); with SF-268 it was > 100 µM (inactive); with NCI-H226 it was > 100 µM (inactive); in the assay with Malme-3M, 36.7 µM (inactive); with SF-295, > 100 µM (inactive). Also, the GI50 with HL-60 was 45.2 µM (inactive); in the assay on NCI-H460, > 100 µM (inactive).
In the case of `COCC1OC(OC2C3=C(C(C)C)CCC3(C)/C=C3\C(CCC3(O)COC)C(C)C2O)C(O)C2OC3OC12OC3(C)C1CO1` (stereo not given), the GI50 in the assay with TK-10 was 29.9 µM (inactive); in the assay on UO-31, 16.4 µM (inactive); in the assay on A498 it was 44 µM (inactive); in the assay on OVCAR-5, > 100 µM (inactive); with HOP-92, 17.2 µM (inactive); with SK-MEL-28, 31.6 µM (inactive). The GI50 with U-251 was 24 µM (inactive); in the assay on CAKI-1, 21.8 µM (inactive); with OVCAR-8, 48 µM (inactive); in the assay with 786-0 it was 60.8 µM (inactive); with SN12C, 50.9 µM (inactive); in the assay on HCC 2998 it was 42.2 µM (inactive). Besides, the GI50 in the assay on SNB-75 is 21.7 µM (inactive); in the assay with SW-620, 34.4 µM (inactive); in the assay with SF-268, 16.9 µM (inactive); with NCI-H226, 16.3 µM (inactive); in the assay with Malme-3M, 34.7 µM (inactive); in the assay with SF-295 it was 31.7 µM (inactive). The GI50 is 16.3 µM (inactive) in the assay with HL-60 and 32.7 µM (inactive) in the assay on NCI-H460.
Consider `COC(=O)C1(NC(=O)C(Cc2ccccc2)NC(=O)C(NC(=O)C(CCCCNC(=O)OC(C)(C)C)NC(=O)C(Cc2c[nH]c3ccccc23)NC(=O)C(Cc2ccccc2)NC(=O)OCc2ccccc2)C(C)OC(C)(C)C)CCCC1` (stereo not given) (Cbz-FWK(Boc)T(tBu)F[Ac5c]-OMe; configuration not given here), for which the GI50 with TK-10 was > 100 µM (inactive); in the assay with UO-31 it was > 100 µM (inactive); in the assay with A498 it was > 10 µM (inactive); in the assay on OVCAR-5 it was 64.1 µM (inactive); in the assay with HOP-92, 68.9 µM (inactive); with SK-MEL-28, > 100 µM (inactive). In addition, the GI50 is 34 µM (inactive) in the assay on U-251; > 100 µM (inactive) with CAKI-1; > 100 µM (inactive) in the assay with OVCAR-8; > 100 µM (inactive) with 786-0; > 100 µM (inactive) with SN12C; > 100 µM (inactive) with HCC 2998. Further, the GI50 is > 100 µM (inactive) in the assay with SNB-75; 51.6 µM (inactive) in the assay with SW-620; > 100 µM (inactive) in the assay with SF-268; > 100 µM (inactive) in the assay on NCI-H226; > 100 µM (inactive) in the assay on Malme-3M; > 100 µM (inactive) in the assay with SF-295. The GI50 with HL-60 and in the assay on NCI-H460 was > 100 µM (inactive) each time.
`CC1CC(C)(O)CC(C(O)CC2CC(=O)NC(=O)C2)C1=O` (stereo not given) [RESACTIN A]: the GI50 in the assay on TK-10 was 0.187 µM (active); in the assay on UO-31, 0.055 µM (active); in the assay with A498, 0.067 µM (active); with OVCAR-5, 0.059 µM (active); in the assay with HOP-92 it was < 0.02 µM (active); with SK-MEL-28 it was 0.0478 µM (active). The GI50 in the assay on U-251 is 0.0313 µM (active); with CAKI-1, < 0.01 µM (active); with OVCAR-8, 0.0266 µM (active); in the assay on 786-0 it was 0.0252 µM (active); in the assay with SN12C, 0.0202 µM (active); in the assay with HCC 2998, 0.0441 µM (active). For the same molecule, the GI50 with SNB-75 is 0.0225 µM (active); with SW-620 it was 0.0294 µM (active); in the assay on SF-268, 0.0455 µM (active); in the assay on NCI-H226 it was 0.0689 µM (active); with Malme-3M, 0.0546 µM (active); in the assay on SF-295, < 0.0149 µM (active). Besides, the GI50 with HL-60 was 0.0392 µM (active); with NCI-H460, 0.0385 µM (active).
